Assay results taken from patent US12617797B2, “Substituted pyrazolo [1,5-a]pyrimidines having multimodal activity against pain” (ESTEVE PHARMACEUTICALS, S.A., priority 2020, dated 2026).

Key:
[1] = biological target: Human α2δ-1 subunit of Cav2.2 calcium channel (Homo sapiens, UniProt P54289); experiment: Human α2δ-1 subunit of Cav2.2 calcium channel assay ([3H]-gabapentin binding); settings: binding to the α2δ-1 subunit of voltage-gated calcium channels expressed as Ki; + also covers inhibition between 1% and 50%
Chain of Human α2δ-1 subunit of Cav2.2 calcium channel (P54289 25-1103): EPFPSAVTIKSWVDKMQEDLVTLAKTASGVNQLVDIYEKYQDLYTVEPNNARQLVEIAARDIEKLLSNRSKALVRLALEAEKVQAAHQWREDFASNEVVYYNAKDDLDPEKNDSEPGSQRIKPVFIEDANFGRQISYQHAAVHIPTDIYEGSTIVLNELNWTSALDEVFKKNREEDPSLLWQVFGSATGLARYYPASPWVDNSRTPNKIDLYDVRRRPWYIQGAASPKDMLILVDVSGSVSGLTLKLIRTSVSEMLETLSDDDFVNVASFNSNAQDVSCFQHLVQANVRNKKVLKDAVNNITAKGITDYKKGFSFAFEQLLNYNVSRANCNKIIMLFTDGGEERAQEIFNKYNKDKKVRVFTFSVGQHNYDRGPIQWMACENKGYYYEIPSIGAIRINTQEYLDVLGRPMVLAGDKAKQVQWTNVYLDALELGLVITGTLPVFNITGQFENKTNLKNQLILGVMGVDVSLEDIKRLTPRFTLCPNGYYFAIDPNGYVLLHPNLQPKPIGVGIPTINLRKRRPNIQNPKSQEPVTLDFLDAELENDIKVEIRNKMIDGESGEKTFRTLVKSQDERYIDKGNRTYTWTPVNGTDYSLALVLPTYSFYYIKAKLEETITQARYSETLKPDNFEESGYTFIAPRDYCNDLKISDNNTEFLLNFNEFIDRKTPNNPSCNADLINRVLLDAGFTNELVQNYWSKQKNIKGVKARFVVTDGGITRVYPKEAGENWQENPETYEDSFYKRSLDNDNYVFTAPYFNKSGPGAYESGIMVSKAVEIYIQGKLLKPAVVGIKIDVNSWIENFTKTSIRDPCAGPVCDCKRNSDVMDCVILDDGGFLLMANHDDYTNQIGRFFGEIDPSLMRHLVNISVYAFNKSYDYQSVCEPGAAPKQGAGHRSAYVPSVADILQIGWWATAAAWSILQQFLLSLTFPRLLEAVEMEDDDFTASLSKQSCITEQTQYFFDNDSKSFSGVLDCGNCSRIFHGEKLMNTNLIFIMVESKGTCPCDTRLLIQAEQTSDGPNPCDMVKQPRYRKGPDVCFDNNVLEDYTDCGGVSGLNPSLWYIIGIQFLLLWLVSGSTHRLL
How it was run: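 Displacement of 15 nM [3H]-gabapentin from human α2δ-1-enriched membranes (Hepes-KOH 10 mM, pH 7.4; 27 °C, 60 min) read by filter binding and radioactivity counting. Values are single-point % inhibition (1 or 10 μM) or five-point Ki; 10 μM pregabalin sets NSB.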

Human σ1 receptor = biological target: T1, Human σ1 receptor (Homo sapiens, UniProt Q99720); experiment: Human σ1 receptor radioligand assay ([3H](+)-pentazocine binding, transfected HEK-293 membranes); settings: binding to σ1 receptor expressed as Ki; + also covers inhibition between 1% and 50%; read-out: σ-1 binding
T1 construct: expressed in transfected cells; host or cells: HEK-293
T1 sequence (Q99720 whole entry): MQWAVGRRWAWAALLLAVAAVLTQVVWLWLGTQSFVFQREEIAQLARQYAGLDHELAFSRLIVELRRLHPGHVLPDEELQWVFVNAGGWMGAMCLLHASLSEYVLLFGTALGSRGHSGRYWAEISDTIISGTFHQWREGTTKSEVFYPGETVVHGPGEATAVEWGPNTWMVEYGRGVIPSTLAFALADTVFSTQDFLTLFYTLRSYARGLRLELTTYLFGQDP
How it was run: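 Ki was derived from five test concentrations, or % inhibition was measured at a single 1 or 10 μM dose, against 5 nM [3H](+)-pentazocine. Incubation was 120 min at 37° C in 50 mM Tris-HCl pH 8 with 7 μg HEK-293 membranes, and 10 μM haloperidol set non-specific binding. Bound radioactivity was counted after filtration.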

Row | Compound | Ki [1] [µM] | Ki (Human σ1 receptor) [µM]
1 | Cc1nn2c(C3CCCN(Cc4ccc(F)c(F)c4)C3)ccnc2c1-c1ccncc1 (centres unmarked) [Example 125, 7-(1-(3,4-Difluorobenzyl)piperidin-3-yl)-2-methyl-3-(pyridin-4-yl)pyrazolo[1,5-a]pyrimidine] | 0.5 to 5 | > 1
2 | Cc1nn2c(C3CCCN(CCC(C)C)C3)ccnc2c1-c1ccncc1 (centres unmarked) [Example 127, 7-(1-Isopentylpiperidin-3-yl)-2-methyl-3-(pyridin-4-yl)pyrazolo[1,5-a]pyrimidine] | > 5 | < 0.5
3 | Cc1nn2c(C3CCCN(Cc4ccc(Cl)cc4)C3)ccnc2c1-c1ccc(C(N)=O)cc1 (centres unmarked) [Example 129, 4-(7-(1-(4-Chlorobenzyl)piperidin-3-yl)-2-methylpyrazolo[1,5-a]pyrimidin-3-yl)benzamide] | > 5 | > 1
4 | Cc1nn2c(C3CCCN(Cc4ccc(Cl)cc4)C3)ccnc2c1-c1cncnc1 (centres unmarked) [Example 130, 7-(1-(4-Chlorobenzyl)piperidin-3-yl)-2-methyl-3-(pyrimidin-5-yl)pyrazolo[1,5-a]pyrimidine] | 0.5 to 5 | > 1
5 | Cc1nn2c(C3CCCN(Cc4ccc(Cl)cc4)C3)ccnc2c1-c1cnc(N)nc1 (centres unmarked) [Example 131, 5-(7-(1-(4-Chlorobenzyl)piperidin-3-yl)-2-methylpyrazolo[1,5-a]pyrimidin-3-yl)pyrimidin-2-amine] | > 5 | > 1
6 | Cc1nn2c(C3CCCN(Cc4ccc(Cl)cc4)C3)ccnc2c1-c1ccnc(CO)c1 (centres unmarked) [Example 134, (4-(7-(1-(4-Chlorobenzyl)piperidin-3-yl)-2-methylpyrazolo[1,5-a]pyrimidin-3-yl)pyridin-2-yl)methanol] | > 5 | 0.5 to 1
7 | Cc1nn2c(C3CCCN(Cc4ccc(Cl)cc4)C3)ccnc2c1-c1ccc(CO)nc1 (centres unmarked) [Example 135, (5-(7-(1-(4-Chlorobenzyl)piperidin-3-yl)-2-methylpyrazolo[1,5-a]pyrimidin-3-yl)pyridin-2-yl)methanol] | > 5 | > 1
8 | Cc1nn2c(C3CCCN(Cc4ccc(Cl)cc4)C3)ccnc2c1-c1cncn1C (centres unmarked) [Example 138, 7-(1-(4-Chlorobenzyl)piperidin-3-yl)-2-methyl-3-(1-methyl-1H-imidazol-5-yl)pyrazolo[1,5-a]pyrimidine] | > 5 | > 1
9 | Cc1nn2c(C3CCCN(Cc4ccc(Cl)cc4)C3)ccnc2c1-c1ccncn1 (centres unmarked) [Example 139, 7-(1-(4-Chlorobenzyl)piperidin-3-yl)-2-methyl-3-(pyrimidin-4-yl)pyrazolo[1,5-a]pyrimidine] | > 5 | > 1
10 | Cc1nn2c(C3CCCN(Cc4ccc(Cl)cc4)C3)ccnc2c1N(C)C (centres unmarked) [Example 141, 7-(1-(4-Chlorobenzyl)piperidin-3-yl)-N,N,2-trimethylpyrazolo[1,5-a]pyrimidin-3-amine] | > 5 | < 0.5
11 | Cc1nn2c(C3CCCN(Cc4ccccc4)C3)ccnc2c1N(C)Cc1ccccc1 (centres unmarked) [Example 143, N-Benzyl-7-(1-benzylpiperidin-3-yl)-N,2-dimethylpyrazolo[1,5-a]pyrimidin-3-amine] | > 5 | 0.5 to 1
12 | Cc1nn2c(C3CCCN(Cc4ccc(Cl)cc4)C3)ccnc2c1CN(C)Cc1ccccc1 (centres unmarked) [Example 145, N-Benzyl-1-(7-(1-(4-chlorobenzyl)piperidin-3-yl)-2-methylpyrazolo[1,5-a]pyrimidin-3-yl)-N-methylmethanamine] | 0.5 to 5 | < 0.5
13 | Cc1nn2c(C3CCCN(Cc4ccc(Cl)cc4)C3)ccnc2c1CNCc1ccc(F)cc1 (centres unmarked) [Example 146, 1-(7-(1-(4-Chlorobenzyl)piperidin-3-yl)-2-methylpyrazolo[1,5-a]pyrimidin-3-yl)-N-(4-fluorobenzyl)methanamine] | 0.5 to 5 | < 0.5
14 | Cc1nn2c(C3CCCN(Cc4ccc(Cl)cc4)C3)ccnc2c1CNCc1ccc(CO)cc1 (centres unmarked) [Example 147, (4-((((7-(1-(4-Chlorobenzyl)piperidin-3-yl)-2-methylpyrazolo[1,5-a]pyrimidin-3-yl)methyl)amino)methyl)phenyl)methanol] | > 5 | < 0.5

Next, values leading:

Row | Ki [1] [µM] | Ki (Human σ1 receptor) [µM] | Compound
15 | 0.5 to 5 | > 1 | Cc1nn2c(C3CCCN(Cc4ccc(Cl)c(Cl)c4)C3)ccnc2c1-c1ccncc1 (centres unmarked) [Example 123, 7-(1-(3,4-Dichlorobenzyl)piperidin-3-yl)-2-methyl-3-(pyridin-4-yl)pyrazolo[1,5-a]pyrimidine]
16 | > 5 | 0.5 to 1 | Cc1nn2c(C3CCCN(Cc4ccc(Cl)cc4Cl)C3)ccnc2c1-c1ccncc1 (centres unmarked) [Example 124, 7-(1-(2,4-Dichlorobenzyl)piperidin-3-yl)-2-methyl-3-(pyridin-4-yl)pyrazolo[1,5-a]pyrimidine]
17 | > 5 | > 1 | Cc1nn2c(C3CCCN(Cc4ccc(C(F)(F)F)cc4)C3)ccnc2c1-c1ccncc1 (centres unmarked) [Example 126, 2-Methyl-3-(pyridin-4-yl)-7-(1-(4-(trifluoromethyl)benzyl)piperidin-3-yl)pyrazolo[1,5-a]pyrimidine]
18 | > 5 | > 1 | Cc1nn2c(C3CCCN(Cc4ccc(Cl)cc4)C3)ccnc2c1-c1cccc(C(=O)N(C)C)c1 (centres unmarked) [Example 128, 3-(7-(1-(4-Chlorobenzyl)piperidin-3-yl)-2-methylpyrazolo[1,5-a]pyrimidin-3-yl)-N,N-dimethylbenzamide]
19 | 0.5 to 5 | > 1 | Cc1nn2c(C3CCCN(Cc4ccc(Cl)cc4)C3)ccnc2c1-c1cnn(C)c1 (centres unmarked) [Example 132, 7-(1-(4-Chlorobenzyl)piperidin-3-yl)-2-methyl-3-(1-methyl-1H-pyrazol-4-yl)pyrazolo[1,5-a]pyrimidine]
20 | > 5 | > 1 | Cc1noc(C)c1-c1c(C)nn2c(C3CCCN(Cc4ccc(Cl)cc4)C3)ccnc12 (centres unmarked) [Example 133, 4-(7-(1-(4-Chlorobenzyl)piperidin-3-yl)-2-methylpyrazolo[1,5-a]pyrimidin-3-yl)-3,5-dimethylisoxazole]
21 | > 5 | > 1 | CCOc1cc(-c2c(C)nn3c(C4CCCN(Cc5ccc(Cl)cc5)C4)ccnc23)ccn1 (centres unmarked) [Example 136, 7-(1-(4-Chlorobenzyl)piperidin-3-yl)-3-(2-ethoxypyridin-4-yl)-2-methylpyrazolo[1,5-a]pyrimidine]
22 | > 5 | > 1 | Cc1nn2c(C3CCCN(Cc4ccc(Cl)cc4)C3)ccnc2c1-c1ccnc(OCC2CC2)c1 (centres unmarked) [Example 137, 7-(1-(4-Chlorobenzyl)piperidin-3-yl)-3-(2-(cyclopropylmethoxy)pyridin-4-yl)-2-methylpyrazolo[1,5-a]pyrimidine]
23 | 0.5 to 5 | > 1 | Cc1nn2c(C3CCCN(Cc4ccc(Cl)cc4)C3)ccnc2c1-c1ccnc(N)n1 (centres unmarked) [Example 140, 4-(7-(1-(4-Chlorobenzyl)piperidin-3-yl)-2-methylpyrazolo[1,5-a]pyrimidin-3-yl)pyrimidin-2-amine]
24 | > 5 | > 1 | Cc1nn2c(C3CCCN(Cc4ccccc4)C3)ccnc2c1N(C)C (centres unmarked) [Example 142, 7-(1-Benzylpiperidin-3-yl)-N,N,2-trimethylpyrazolo[1,5-a]pyrimidin-3-amine]
25 | 0.5 to 5 | < 0.5 | Cc1nn2c(C3CCCN(Cc4ccc(Cl)cc4)C3)ccnc2c1CNCc1ccccc1 (centres unmarked) [Example 144, N-Benzyl-1-(7-(1-(4-chlorobenzyl)piperidin-3-yl)-2-methylpyrazolo[1,5-a]pyrimidin-3-yl)methanamine]
